For 18 compounds, IC50 results are on record in patent publication US11814445B2, “Cyclic polypeptides for PCSK9 inhibition” (Ra Pharmaceuticals, Inc., priority 2018, dated 2023).

Usually IC50 stands for the concentration at which inhibition is half-maximal.

Type in all cases: binding
The target of test [1] is T1, PCSK9 (Homo sapiens, UniProt Q8NBP7).
T1 construct: biotin (biotinylated)
The experiment in a line: PCSK9 Alexa FRET Standard assay (displacement of AlexaFluor647 tagged cyclic peptide Reagent A). Particulars: 0.5 nM PCSK9, 20 nM AF cyclic peptide Reagent A. Here is the method:
A solution containing 1 nM biotinylated PCSK9+2.5 nM Lance Streptavidin Europium (Strep-Eu) was made in 50 mM HEPES pH 7.4, 0.15 M NaCl, 5 mM CaCl2), 0.01% BSA, and 0.01% Surfactant P20. A separate solution containing 40 nM of the AlexaFluor tagged cyclic peptide was made in the same buffer system. An Echo was used to transfer 0.750 ul of compound to an assay plate followed by the addition of 15 ul of PCSK9+Stept-Eu and 15 ul of AF peptide. The final assay volume was 30.750 ul containing 0.5 nM PCSK9, 1.25 nM Strep-Eu, and 20 nM AF cyclic peptide. The reaction was incubated at room temperature for at least two hours prior to fluorescence measurements using an Envision Multilabel Reader. IC50 values were determined by fitting data to a sigmoidal dose-response curve using nonlinear regression. Ki was then calculated from the IC50 and the KD of AF cyclic peptide. Counts (B-counts) of the europium-labeled PCSK9 were followed to observe if compounds were […]. A fall off of the B-counts likely indicated a false positive of inhibition. Data from this procedure was reported as “A=‘numerical value’ (nanomolar)”

Test [2] deals with human PCSK9 / human LDLR EGFa domain (Homo sapiens, UniProt Q8NBP7). The experiment in a line: TR-FRET assay of inhibition of the PCSK9-LDLR protein-protein interaction. Particulars: 20 nM human PCSK9, 20 nM human LDLR EGFa domain, 2 hours room temperature. A digest of the protocol: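 Readout is the TR-FRET signal between europium anti-6×His on his-tagged LDLR EGFa domain and Ulight streptavidin on biotinylated PCSK9, both proteins at 20 nM and both detection reagents at 5 nM. Incubation lasted 2 hours at room temperature; compounds were run in dose-response with a 4-parameter fit.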
In general terms: In TR-FRET formats the signal depends on donor and acceptor labels being close together.

Test [3] has as its target T1, PCSK9. The experiment in a line: PCSK9 Alexa FRET Plus assay (displacement of AlexaFluor647 tagged cyclic peptide Reagent B). Particulars: 0.5 nM PCSK9, 960 nM AF cyclic peptide Reagent B. Here is the method:
A solution containing 1 nM biotinylated PCSK9+2.5 nM Lance Streptavidin Europium (Strep-Eu) was made in 50 mM HEPES pH 7.4, 0.15 M NaCl, 5 mM CaCl2), 0.01% BSA, and 0.01% Surfactant P20. A separate solution containing 1920 nM of the AlexaFluor tagged cyclic peptide was made in the same buffer system. An Echo was used to transfer 0.075 ul of compound plus 0.675 ul of DMSO to each well of an assay plate followed by the addition of 15 ul of PCSK9+Stept-Eu and 15 ul of AF peptide. The final assay volume was 30.750 ul containing 0.5 nM PCSK9, 1.25 nM Strep-Eu, and 960 nM AF cyclic peptide. The reaction was incubated at room temperature for at least two hours prior to fluorescence measurements using an Envision Multilabel Reader. IC50 values were determined by fitting data to a sigmoidal dose-response curve using nonlinear regression. Ki was then calculated from the IC50 and the KD of AF cyclic peptide. Counts (B-counts) of the europium-labeled PCSK9 were followed to observe if compounds were adversely affecting PCSK9. A fall off of the B-counts likely indicated a false positive of inhibition. Data from this procedure was reported as “P=‘numerical value’ (nanomolar)”

SMILES strings stand for the structures. Numbered stars: 1 amine (or outer) side, 2 acyl side, 3 side chain; on linkers, the order of the positions; unused ones are H or OH. Bridge positions count the residues as written; N and C are the ends. Square brackets hold non-standard residues; d marks the D form. Peptide text beside a SMILES is read from it. X6 = O=C([C@H](Cc1cccc(OCC=[*:3])c1)N[*:1])[*:2]; Phe(4-CF3) = N[C@@H](Cc1ccc(C(F)(F)F)cc1)C(=O)O; Phe(4-COOH) = N[C@@H](Cc1ccc(C(=O)O)cc1)C(=O)O; Trp(5-F) = N[C@@H](Cc1c[nH]c2ccc(F)cc12)C(=O)O; X1 = O=C(CCSCc1cccc(CSCCN[*:1])c1)[*:2]; mXylylene = c1cc(C[*:1])cc(C[*:2])c1; NMeY = CN[C@@H](Cc1ccc(O)cc1)C(=O)O; X5 = O=C(CN(CCCCC=[*:3])[*:1])[*:2]; X4 = O=C(CN(CCCC=[*:3])[*:1])[*:2]; NMeF = CN[C@@H](Cc1ccccc1)C(=O)O; X7 = O=C(CN(CC=[*:3])[*:1])[*:2]; aThr = C[C@H](O)[C@H](N)C(=O)O; αMeP = C[C@@]1(C(=O)O)CCCN1; hSer = N[C@@H](CCO)C(=O)O; Ahx = NCCCCCC(=O)O; Mpa = O=C(O)CCS

Sequence of human PCSK9 / human LDLR EGFa domain (Q8NBP7 153-692): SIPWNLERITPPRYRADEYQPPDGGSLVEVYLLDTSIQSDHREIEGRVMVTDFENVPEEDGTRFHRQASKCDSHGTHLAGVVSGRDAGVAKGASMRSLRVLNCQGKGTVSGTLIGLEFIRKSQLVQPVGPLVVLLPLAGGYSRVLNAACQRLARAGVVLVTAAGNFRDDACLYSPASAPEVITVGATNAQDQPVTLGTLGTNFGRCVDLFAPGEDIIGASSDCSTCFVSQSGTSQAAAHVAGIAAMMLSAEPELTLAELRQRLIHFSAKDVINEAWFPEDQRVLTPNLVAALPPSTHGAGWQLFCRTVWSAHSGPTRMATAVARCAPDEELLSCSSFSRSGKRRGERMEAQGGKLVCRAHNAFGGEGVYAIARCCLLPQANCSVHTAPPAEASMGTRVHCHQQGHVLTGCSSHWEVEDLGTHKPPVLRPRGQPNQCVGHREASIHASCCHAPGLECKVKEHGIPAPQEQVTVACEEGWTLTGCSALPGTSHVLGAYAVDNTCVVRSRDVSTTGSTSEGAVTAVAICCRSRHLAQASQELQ
T1 sequence (Q8NBP7 153-692): as above

`COc1ccc(C[C@H]2C(=O)N3CCC[C@H]3C(=O)NCCSCc3cccc(c3)CSCCC(=O)N3CCC[C@H]3C(=O)N[C@H](C)C(=O)N[C@@H](Cc3c[nH]c4ccc(F)cc34)C(=O)N[C@@H](Cc3c[nH]c4ccc(F)cc34)C(=O)N3CCC[C@H]3C(=O)N[C@@H](C)C(=O)N2C)cc1` [Compound 053] (cyclo(A[NMeY](Me)P[X1]P[dA][Trp(5-F)][Trp(5-F)]P)): the figures for the 50% inhibitory concentration (IC50) in test [1] and in test [2] were 1000 to 12100 nM and 100 to 1000 nM, respectively.
For `C[C@@H]1NC(=O)CCSCc2cccc(c2)CSCCNC(=O)[C@@H]2CCCN2C(=O)[C@H](Cc2ccccc2)N(C)C(=O)[C@H](C)NC(=O)[C@@H]2CCCN2C(=O)[C@H](Cc2c[nH]c3ccc(F)cc23)NC(=O)[C@H](Cc2c[nH]c3ccc(F)cc23)NC(=O)[C@@H](C)NC1=O` [Compound 063] (cyclo(A[NMeF]P[X1]A[dA][Trp(5-F)][Trp(5-F)]P)), the 50% inhibitory concentration (IC50) in test [1] and in test [2] was 1 to 100 nM in each case.
`C[C@@H]1NC(=O)CCSCc2cccc(c2)CSC[C@@H](C(N)=O)NC(=O)[C@@H]2CCCN2C(=O)[C@H](Cc2ccc(C(F)(F)F)cc2)NC(=O)[C@H](C)NC(=O)[C@@H]2CCCN2C(=O)[C@H](Cc2c[nH]c3ccc(F)cc23)NC(=O)[C@H](Cc2c[nH]c3ccc(F)cc23)NC(=O)[C@@H](C)NC1=O` [Compound 084] ([Mpa]A[dA][Trp(5-F)][Trp(5-F)]PA[Phe(4-CF3)]PC-NH2; linker 1-10 via mXylylene): the results for the IC50 in test [1] and in test [2] were 1 to 100 nM and 100 to 1000 nM, respectively.
For the compound `COc1ccc(C[C@@H]2NC(=O)[C@H](C)NC(=O)[C@@H]3CCCN3C(=O)[C@H](NC(=O)[C@H](Cc3c[nH]c4ccc(F)cc34)NC(C)=O)Cc3cn(c4ccc(F)cc34)Cc3cn(nn3)-c3cccc(c3)CSCCNC(=O)[C@]3(C)CCCN3C2=O)cc1` [Compound 101], the concentration for half-maximal inhibition (IC50) in test [1] and in test [2] was 1 to 100 nM in each case.
Turning to `COc1ccc(C[C@@H]2NC(=O)[C@H](C)NC(=O)[C@@H]3CCCN3C(=O)[C@H](NC(=O)[C@H](Cc3c[nH]c4ccc(F)cc34)NC(=O)[C@@H](C)NC(C)=O)Cc3cn(c4ccc(F)cc34)Cc3cn(nn3)-c3cccc(c3)CSCCNC(=O)[C@]3(C)CCCN3C2=O)cc1` [Compound 102], the concentration for half-maximal inhibition (IC50) in test [1] and in test [2] was 1 to 100 nM in each case.
Take `C[C@H](O)[C@@H]1NC(=O)CNC(=O)[C@H](CCCCN)NC(=O)CCSCc2cccc(c2)CSC[C@@H](C(N)=O)NC(=O)[C@]2(C)CCCN2C(=O)[C@H](Cc2ccc(O)cc2)NC(=O)[C@H](Cc2cnc[nH]2)NC(=O)[C@H](CC(=O)O)NC(=O)[C@H](Cc2c[nH]c3ccc(F)cc23)NC1=O` [Compound 114] ([Mpa]KG[aThr][Trp(5-F)]DHY[αMeP]C-NH2; linker 1-10 via mXylylene): the IC50 in test [1] and in test [2] was 100 to 1000 nM each time.
Take `NCCCC[C@@H]1NC(=O)CCSCc2cccc(c2)CSC[C@@H](C(N)=O)NC(=O)[C@@H]2CCCN2C(=O)[C@H](Cc2ccc(O)cc2)NC(=O)[C@H](Cc2cnc[nH]2)NC(=O)[C@H](CCO)NC(=O)[C@H](Cc2c[nH]c3ccc(F)cc23)NC(=O)[C@H](Cc2c[nH]c3ccc(F)cc23)NC(=O)CNC1=O` [Compound 117] ([Mpa]KG[Trp(5-F)][Trp(5-F)][hSer]HYPC-NH2; linker 1-10 via mXylylene): the IC50 in test [1] was 1 to 100 nM; in test [2], 100 to 1000 nM.
Consider `COc1ccc(C[C@@H]2NC(=O)[C@H](C)NC(=O)CN3C/C=C\COc4cccc(c4)C[C@H](NC(=O)CNC(=O)CCCCCNC(=O)c4ccc(cc4)C[C@@H](C(N)=O)NC(=O)[C@]4(C)CCCN4C2=O)C(=O)N[C@@H](Cc2c[nH]c4ccc(F)cc24)C3=O)cc1` [Compound 121] ([Ahx]G[X6][Trp(5-F)][X7]AY(Me)[αMeP][Phe(4-COOH)]-NH2; staple (Z) 3-5; lactam N-9), for which the half-inhibitory concentration (IC50) was in the range of 1 to 100 nM in test [1] and 100 to 1000 nM in test [2].
Taken in the same sequence, the figures for `COc1ccc(C[C@@H]2NC(=O)[C@H](C)NC(=O)CN3CCCC/C=C\CCCN(CC(=O)N[C@@H](Cc4c[nH]c5ccc(F)cc45)C3=O)C(=O)CNC(=O)CCCCCNC(=O)c3ccc(cc3)C[C@@H](C(N)=O)NC(=O)[C@]3(C)CCCN3C2=O)cc1` [Compound 122] ([Ahx]G[X4][Trp(5-F)][X5]AY(Me)[αMeP][Phe(4-COOH)]-NH2; staple (Z) 3-5; lactam N-9) were 100 to 1000 nM and 1000 to 12100 nM.
For the compound `COc1ccc(C[C@@H]2NC(=O)[C@H](C)NC(=O)CN3CCCCCCCCCN(CC(=O)N[C@@H](Cc4c[nH]c5ccc(F)cc45)C3=O)C(=O)CNC(=O)CCCCCNC(=O)c3ccc(cc3)C[C@@H](C(N)=O)NC(=O)[C@]3(C)CCCN3C2=O)cc1` [Compound 123], the IC50 in test [1] was in the range of 1 to 100 nM; in test [2], 100 to 1000 nM.
Taken in the same sequence, the figures for `COc1ccc(C[C@@H]2NC(=O)[C@H](C)NC(=O)CN3CCCCOc4cccc(c4)C[C@H](NC(=O)CNC(=O)CCCCCNC(=O)c4ccc(cc4)C[C@@H](C(N)=O)NC(=O)[C@]4(C)CCCN4C2=O)C(=O)N[C@@H](Cc2c[nH]c4ccc(F)cc24)C3=O)cc1` [Compound 124] were 1 to 100 nM and 100 to 1000 nM.
The corresponding values for `COc1ccc(C[C@@H]2NC(=O)[C@H]([C@@H](C)O)NC(=O)CN3CCCCCOc4cccc(c4)C[C@@H](NC(=O)[C@@H](C)NC(=O)[C@H](C)NC(=O)CCSCc4cccc(c4)CSCCNC(=O)[C@]4(C)CCCN4C2=O)C(=O)N[C@@H](Cc2c[nH]c4ccc(F)cc24)C3=O)cc1` [Compound 125] are 100 to 1000 nM and 100 to 1000 nM.
The corresponding values for `COc1ccc(C[C@@H]2NC(=O)[C@H]([C@@H](C)O)NC(=O)CN3CCCCOc4cccc(c4)C[C@H](NC(=O)[C@@H](C)NC(=O)[C@H](C)NC(=O)CCSCc4cccc(c4)CSCCNC(=O)[C@]4(C)CCCN4C2=O)C(=O)N[C@H](Cc2c[nH]c4ccc(F)cc24)C3=O)cc1` [Compound 126] are 1 to 100 nM and 1 to 100 nM.
Consider `COc1ccc(C[C@@H]2NC(=O)[C@H](C)NC(=O)[C@@H]3CCC(=O)NCc4cccc(c4)C[C@H](NC(=O)CNC(C)=O)C(=O)N[C@@H](Cc4cn(c5ccc(F)cc45)Cc4cn(nn4)CC[C@@H](C(N)=O)NC(=O)[C@]4(C)CCCN4C2=O)C(=O)N3)cc1` [Compound 127], for which the IC50 was in the range of 1 to 100 nM in test [1] and 100 to 1000 nM in test [2].
The corresponding values for `COc1ccc(C[C@@H]2NC(=O)[C@H](C)NC(=O)[C@@H]3CCCN3C(=O)[C@@H]3Cc4cn(c5ccc(F)cc45)Cc4cn(nn4)-c4c(cccc4CSCCC(=O)N[C@H](C)C(=O)NCC(=O)N[C@@H](Cc4c[nH]c5ccc(F)cc45)C(=O)N3)CSCCNC(=O)[C@]3(C)CCCN3C2=O)cc1` [Compound 128] are 1 to 100 nM and 100 to 1000 nM.
Taken in the same sequence, the figures for `COc1ccc(C[C@@H]2NC(=O)[C@H]([C@@H](C)O)NC(=O)[C@@H]3CCCN3C(=O)[C@H]3Cc4cn(c5ccc(F)cc45)Cc4cn(nn4)-c4cc(cc(c4)CSCCC(=O)N[C@@H](C)C(=O)N[C@H](C)C(=O)N[C@@H](Cc4c[nH]c5ccc(F)cc45)C(=O)N3)CSCCNC(=O)[C@]3(C)CCCN3C2=O)cc1` [Compound 129] were 1000 to 12100 nM and 1000 to 12100 nM.
As to `COc1ccc(C[C@@H]2NC(=O)[C@H]([C@@H](C)O)NC(=O)[C@H]3C[C@@H](F)CN3C(=O)[C@H]3Cc4cn(c5ccc(F)cc45)Cc4cn(nn4)-c4cc(cc(c4)CSCCC(=O)N[C@@H](C)C(=O)N[C@H](C)C(=O)N[C@@H](Cc4c[nH]c5ccc(F)cc45)C(=O)N3)CSCCNC(=O)[C@]3(C)CCCN3C2=O)cc1` [Compound 130], the results for the IC50 in test [1] and in test [3] were 100 to 1000 nM and 100 to 500 nM, respectively.
Taken in the same sequence, the figures for `COc1ccc(C[C@@H]2NC(=O)[C@H]([C@@H](C)OC)NC(=O)[C@H]3CCCN3C(=O)[C@H]3Cc4cn(c5ccc(F)cc45)Cc4cn(nn4)-c4cc(cc(c4)CSCCC(=O)N[C@@H](C)C(=O)N[C@H](C)C(=O)N[C@@H](Cc4c[nH]c5ccc(F)cc45)C(=O)N3)CSCCNC(=O)[C@]3(C)CCCN3C2=O)cc1` [Compound 131] were 1 to 100 nM and 1 to 100 nM.
